Experimental data as given in patent US9765060B2 (Gilead Sciences, Inc., priority 2014, dated 2017).

Biological target: PI3K isoform δ (Homo sapiens (Human), UniProt O00329)
Experiment: TR-FRET assay of enzymatic activity of class I PI3K isoforms
Conditions: read-out: IC50 (nM) for PI3K isoform δ (Table 3); TR-FRET; 2× Km ATP, 2 μM PIP2; incubated for 30 minutes at 25° C.

PI3K isoform δ, sequence (O00329 whole entry, canonical isoform): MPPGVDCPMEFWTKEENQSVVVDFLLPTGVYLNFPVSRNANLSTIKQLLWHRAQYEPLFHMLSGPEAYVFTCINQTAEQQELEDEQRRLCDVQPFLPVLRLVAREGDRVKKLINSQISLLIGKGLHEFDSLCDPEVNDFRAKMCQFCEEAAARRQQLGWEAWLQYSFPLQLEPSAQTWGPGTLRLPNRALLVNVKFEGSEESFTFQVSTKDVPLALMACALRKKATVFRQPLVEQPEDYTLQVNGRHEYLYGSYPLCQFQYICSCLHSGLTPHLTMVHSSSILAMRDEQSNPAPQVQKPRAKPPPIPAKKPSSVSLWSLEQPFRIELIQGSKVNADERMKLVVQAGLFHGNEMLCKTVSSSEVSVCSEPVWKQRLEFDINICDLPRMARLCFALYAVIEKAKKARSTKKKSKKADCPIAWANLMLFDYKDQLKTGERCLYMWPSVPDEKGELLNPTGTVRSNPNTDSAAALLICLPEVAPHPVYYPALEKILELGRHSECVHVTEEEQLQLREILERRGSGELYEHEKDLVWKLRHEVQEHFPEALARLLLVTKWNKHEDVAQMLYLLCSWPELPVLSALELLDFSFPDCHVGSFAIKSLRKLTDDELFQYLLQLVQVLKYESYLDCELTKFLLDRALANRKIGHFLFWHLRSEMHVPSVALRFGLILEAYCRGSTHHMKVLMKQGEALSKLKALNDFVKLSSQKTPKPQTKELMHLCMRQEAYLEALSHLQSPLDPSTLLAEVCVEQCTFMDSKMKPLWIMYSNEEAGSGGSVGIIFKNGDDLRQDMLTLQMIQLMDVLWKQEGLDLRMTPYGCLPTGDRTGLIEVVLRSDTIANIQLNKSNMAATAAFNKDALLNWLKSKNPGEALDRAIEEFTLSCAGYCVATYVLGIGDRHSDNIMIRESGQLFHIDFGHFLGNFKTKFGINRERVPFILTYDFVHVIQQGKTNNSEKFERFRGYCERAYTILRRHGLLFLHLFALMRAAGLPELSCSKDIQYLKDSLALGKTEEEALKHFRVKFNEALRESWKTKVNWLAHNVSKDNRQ
PI3K isoform δ, sequence (P27986 whole entry partner, canonical isoform): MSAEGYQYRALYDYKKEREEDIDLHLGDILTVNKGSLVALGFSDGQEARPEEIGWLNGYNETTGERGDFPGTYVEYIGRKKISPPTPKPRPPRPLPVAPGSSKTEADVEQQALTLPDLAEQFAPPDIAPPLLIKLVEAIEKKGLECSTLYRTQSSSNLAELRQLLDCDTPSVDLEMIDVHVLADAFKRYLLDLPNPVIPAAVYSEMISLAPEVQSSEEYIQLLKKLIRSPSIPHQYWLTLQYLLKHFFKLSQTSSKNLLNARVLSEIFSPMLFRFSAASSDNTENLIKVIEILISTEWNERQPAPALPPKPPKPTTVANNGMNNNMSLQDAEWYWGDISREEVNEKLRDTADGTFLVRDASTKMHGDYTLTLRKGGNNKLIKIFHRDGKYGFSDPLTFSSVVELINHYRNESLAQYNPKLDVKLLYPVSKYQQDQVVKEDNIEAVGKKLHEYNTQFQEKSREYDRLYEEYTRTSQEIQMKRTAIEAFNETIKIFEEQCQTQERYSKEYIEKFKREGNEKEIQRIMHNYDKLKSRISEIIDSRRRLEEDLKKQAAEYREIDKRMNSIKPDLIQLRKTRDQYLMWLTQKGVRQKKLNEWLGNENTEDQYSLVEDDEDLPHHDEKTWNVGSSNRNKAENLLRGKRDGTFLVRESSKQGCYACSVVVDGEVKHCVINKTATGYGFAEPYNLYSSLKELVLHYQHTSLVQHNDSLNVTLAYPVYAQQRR

SMILES | IC50 [nM]
C[C@H](Nc1nc(N)nc(N)c1C#N)c1nc2cccc(CCC(N)=O)c2c(=O)n1-c1cc(F)cc(F)c1 [Compound 40, (S)-3-(2-(1-((2,6-diamino-5-cyanopyrimidin-4-yl)amino)ethyl)-3-(3,5-difluorophenyl)-4-oxo-3,4-dihydroquinazoline-5-yl)propanamide] | 4
C[C@H](Nc1nc(N)nc(N)c1Cl)c1nc2c(F)ccc(CCC(N)=O)c2c(=O)n1-c1cc(F)cc(F)c1 [Compound 41, (S)-3-(2-(1-((2,6-diamino-5-chloropyrimidin-4-yl)amino)ethyl)-3-(3,5-difluorophenyl)-8-fluoro-4-oxo-3,4-dihydroquinazoline-5-yl)propanamide] | 25
C[C@H](Nc1nc(N)nc(N)c1Cl)c1nc2cccc(CCC(N)=O)c2c(=O)n1-c1cc(F)cc(F)c1 [Compound 42, (S)-3-(2-(1-((2,6-diamino-5-chloropyrimidin-4-yl)amino)ethyl)-3-(3,5-difluorophenyl)-4-oxo-3,4-dihydroquinazoline-5-yl)propanamide] | 20
C[C@H](Nc1nc(N)nc(N)c1Cl)c1nc2cccc(CCC(N)=O)c2c(=O)n1-c1ccccc1 [Compound 43, (S)-3-(2-(1-((2,6-diamino-5-chloropyrimidin-4-yl)amino)ethyl)-4-oxo-3-phenyl-3,4-dihydroquinazoline-5-yl)propanamide] | 9
CC(Cc1cccc2nc([C@H](C)Nc3nc(N)nc(N)c3C#N)n(-c3ccccc3)c(=O)c12)N1CCCC1 (stereo partly drawn) [Compound 45, (S)-2,4-diamino-6-((1-(4-oxo-3-phenyl-5-(2-(pyrrolidin-1-yl)propyl)-3,4-dihydroquinazolin-2-yl)ethyl)amino)pyrimidine-5-carbonitrile] | 0.7
C[C@H](Nc1nc(N)nc(N)c1C#N)c1nc2cccc(CCCN3CCCCC3)c2c(=O)n1-c1ccccc1 [Compound 46, (S)-2,4-diamino-6-((1-(4-oxo-3-phenyl-5-(3-(piperidin-1-yl)propyl)-3,4-dihydroquinazolin-2-yl)ethyl)amino)pyrimidine-5-carbonitrile] | 0.4
C[C@H](Nc1nc(N)nc(N)c1C#N)c1nc2cccc(CCCN3CCC(F)(F)C3)c2c(=O)n1-c1ccccc1 [Compound 47, (S)-2,4-diamino-6-((1-(5-(3-(3,3-difluoropyrrolidin-1-yl)propyl)-4-oxo-3-phenyl-3,4-dihydroquinazolin-2-yl)ethyl)amino)pyrimidine-5-carbonitrile] | 2
C[C@H](Nc1nc(N)nc(N)c1C#N)c1nc2cccc(CCCN3CCC(F)(F)CC3)c2c(=O)n1-c1ccccc1 [Compound 48, (S)-2,4-diamino-6-((1-(5-(3-(4,4-difluoropiperidin-1-yl)propyl)-4-oxo-3-phenyl-3,4-dihydroquinazolin-2-yl)ethyl)amino)pyrimidine-5-carbonitrile] | 0.5
CC1COCC(C)N1CCCc1cccc2nc([C@H](C)Nc3nc(N)nc(N)c3C#N)n(-c3ccccc3)c(=O)c12 (stereo partly drawn) [Compound 49, 2,4-diamino-6-(((1S)-1-(5-(3-(3,5-dimethylmorpholino)propyl)-4-oxo-3-phenyl-3,4-dihydroquinazolin-2-yl)ethyl)amino)pyrimidine-5-carbonitrile] | 1.4
C[C@H](Nc1nc(N)nc(N)c1C#N)c1nc2c(F)ccc(CCCN3CCCC3)c2c(=O)n1-c1ccccc1 [Compound 50, (S)-2,4-diamino-6-((1-(8-fluoro-4-oxo-3-phenyl-5-(3-(pyrrolidin-1-yl)propyl)-3,4-dihydroquinazolin-2-yl)ethyl)amino)pyrimidine-5-carbonitrile] | 1.3
C[C@H](Nc1nc(N)nc(N)c1C#N)c1nc2cccc(CCCN3CCCC3)c2c(=O)n1-c1cc(F)cc(F)c1 [Compound 51, (S)-2,4-diamino-6-((1-(3-(3,5-difluorophenyl)-4-oxo-5-(3-(pyrrolidin-1-yl)propyl)-3,4-dihydroquinazolin-2-yl)ethyl)amino)pyrimidine-5-carbonitrile] | 3
C[C@H](Nc1nc(N)nc(N)c1C#N)c1nc2cccc(CCCN3CCOC(C)(C)C3)c2c(=O)n1-c1ccccc1 [Compound 52, (S)-2,4-diamino-6-((1-(5-(3-(2,2-dimethylmorpholino)propyl)-4-oxo-3-phenyl-3,4-dihydroquinazolin-2-yl)ethyl)amino)pyrimidine-5-carbonitrile] | 0.7
C[C@H](Nc1nc(N)nc(N)c1C#N)c1nc2cccc(CCCN3CCOCC3(C)C)c2c(=O)n1-c1ccccc1 [Compound 53, (S)-2,4-diamino-6-((1-(5-(3-(3,3-dimethylmorpholino)propyl)-4-oxo-3-phenyl-3,4-dihydroquinazolin-2-yl)ethyl)amino)pyrimidine-5-carbonitrile] | 0.7
C[C@H](Nc1nc(N)nc(N)c1C#N)c1nc2cccc(CCCN3CC(F)(F)OC(F)(F)C3)c2c(=O)n1-c1ccccc1 [Compound 54, (S)-2,4-diamino-6-((1-(4-oxo-3-phenyl-5-(3-(2,2,6,6-tetrafluoromorpholino)propyl)-3,4-dihydroquinazolin-2-yl)ethyl)amino)pyrimidine-5-carbonitrile] | 0.5
C[C@H](Nc1nc(N)nc(N)c1C#N)c1nc2c(F)ccc(CCCN3CCC(F)(F)C3)c2c(=O)n1-c1ccccc1 [Compound 55, (S)-2,4-diamino-6-((1-(5-(3-(3,3-difluoropyrrolidin-1-yl)propyl)-8-fluoro-4-oxo-3-phenyl-3,4-dihydroquinazolin-2-yl)ethyl)amino)pyrimidine-5-carbonitrile] | 0.4
N#Cc1c(N)nc(N)nc1N[C@H](c1nc2cccc(CCCN3CCCC3)c2c(=O)n1-c1ccccc1)C1CC1 [Compound 56, (S)-2,4-diamino-6-((cyclopropyl(4-oxo-3-phenyl-5-(3-(pyrrolidin-1-yl)propyl)-3,4-dihydroquinazolin-2-yl)methyl)amino)pyrimidine-5-carbonitrile] | 3
N#Cc1c(N)nc(N)nc1N[C@H](c1nc2cccc(CCCN3CCCCC3)c2c(=O)n1-c1ccccc1)C1CC1 [Compound 57, (S)-2,4-diamino-6-((cyclopropyl(4-oxo-3-phenyl-5-(3-(piperidin-1-yl)propyl)-3,4-dihydroquinazolin-2-yl)methyl)amino)pyrimidine-5-carbonitrile] | 1.4
N#Cc1c(N)nc(N)nc1N[C@H](c1nc2c(F)ccc(CCCN3CCCC3)c2c(=O)n1-c1ccccc1)C1CC1 [Compound 58, (S)-2,4-diamino-6-((cyclopropyl(8-fluoro-4-oxo-3-phenyl-5-(3-(pyrrolidin-1-yl)propyl)-3,4-dihydroquinazolin-2-yl)methyl)amino)pyrimidine-5-carbonitrile] | 3
N#Cc1c(N)nc(N)nc1N[C@H](c1nc2c(F)ccc(CCCN3CCCCC3)c2c(=O)n1-c1ccccc1)C1CC1 [Compound 59, (S)-2,4-diamino-6-((cyclopropyl(8-fluoro-4-oxo-3-phenyl-5-(3-(piperidin-1-yl)propyl)-3,4-dihydroquinazolin-2-yl)methyl)amino)pyrimidine-5-carbonitrile] | 2
N#Cc1c(Cl)nc(N)nc1N[C@H](c1nc2cccc(CCCN3CCCC3)c2c(=O)n1-c1ccccc1)C1CC1 [Compound 60, (S)-2-amino-4-chloro-6-((cyclopropyl(4-oxo-3-phenyl-5-(3-(pyrrolidin-1-yl)propyl)-3,4-dihydroquinazolin-2-yl)methyl)amino)pyrimidine-5-carbonitrile] | 6
C[C@H](Nc1nc(N)nc(N)c1C#N)c1nc2cccc(CCCN3CC4(COC4)C3)c2c(=O)n1-c1ccccc1 [Compound 62, (S)-4-((1-(5-(3-(2-oxa-6-azaspiro[3.3]heptan-6-yl)propyl)-4-oxo-3-phenyl-3,4-dihydroquinazolin-2-yl)ethyl)amino)-2,6-diaminopyrimidine-5-carbonitrile] | 0.8
C[C@H](Nc1nc(N)nc(N)c1C#N)c1nc2cccc(CCCN3CCC4(COC4)C3)c2c(=O)n1-c1ccccc1 [Compound 63, (S)-4-((1-(5-(3-(2-oxa-6-azaspiro[3.4]octan-6-yl)propyl)-4-oxo-3-phenyl-3,4-dihydroquinazolin-2-yl)ethyl)amino)-2,6-diaminopyrimidine-5-carbonitrile] | 0.8
C[C@H](Nc1nc(N)nc(N)c1C#N)c1nc2cccc(CCCN3CCC4(CC3)COC4)c2c(=O)n1-c1ccccc1 [Compound 64, (S)-4-((1-(5-(3-(2-oxa-7-azaspiro[3.5]nonan-7-yl)propyl)-4-oxo-3-phenyl-3,4-dihydroquinazolin-2-yl)ethyl)amino)-2,6-diaminopyrimidine-5-carbonitrile] | 30
C[C@H](Nc1nc(N)nc(N)c1C#N)c1nc2cccc(CCCC3CCCCC3)c2c(=O)n1-c1ccccc1 [Compound 65, (S)-2,4-diamino-6-((1-(5-(3-cyclohexylpropyl)-4-oxo-3-phenyl-3,4-dihydroquinazolin-2-yl)ethyl)amino)pyrimidine-5-carbonitrile] | 15
C[C@H](Nc1nc(N)nc(Cl)c1C#N)c1nc2c(F)ccc(Cl)c2c(=O)n1-c1ccccc1 [Compound 66, (S)-2-amino-4-chloro-6-((1-(5-chloro-8-fluoro-4-oxo-3-phenyl-3,4-dihydroquinazolin-2-yl)ethyl)amino)pyrimidine-5-carbonitrile] | 0.7
N#Cc1c(N)nc(N)nc1N1CC[C@H]1c1nc2cccc(Cl)c2c(=O)n1-c1cc(F)cc(F)c1 [Compound 67, (S)-2,4-diamino-6-(2-(5-chloro-3-(3,5-difluorophenyl)-4-oxo-3,4-dihydroquinazolin-2-yl)azetidin-1-yl)pyrimidine-5-carbonitrile] | 110
N#Cc1c(N)nc(N)nc1N1CC[C@H]1c1nc2cccc(Cl)c2c(=O)n1-c1ccccc1 [Compound 68, (S)-2,4-diamino-6-(2-(5-chloro-4-oxo-3-phenyl-3,4-dihydroquinazolin-2-yl)azetidin-1-yl)pyrimidine-5-carbonitrile] | 30
C[C@H](Nc1nc(N)nc(N)c1C#N)c1nc2cccc(CCCC(=O)O)c2c(=O)n1-c1ccccc1 [Compound 69, (S)-4-(2-(1-((2,6-diamino-5-cyanopyrimidin-4-yl)amino)ethyl)-4-oxo-3-phenyl-3,4-dihydroquinazolin-5-yl)butanoic acid] | 1
